Here are results for five molecules from patent EP4703357A1, “TRIAZOLYL-CONTAINING COMPOUNDS” (Chia Tai Tianqing Pharmaceutical Group Co., Ltd., priority 2023, dated 2024).

Read-outs that look alike come from different tables or passages of the source.

A short description of series [1]: In vitro liver microsomal stability, human. The series is classed as in vitro ADME. The settings on record: human liver microsome 0.5 mg/mL, NADPH, 37 °C, 1 h. The method, then: (§1) Liver microsome incubation samples were prepared by mixing a PBS buffer (pH = 7.4), a liver microsome solution (0.5 mg/mL), a test compound, and an NADPH + MgCl2 solution, and incubated at 37 °C and 300 rpm for 1 h. Zero-hour samples were prepared by mixing a PBS buffer (pH = 7.4), a liver microsome solution (0.5 mg/mL), and a test compound. An acetonitrile solution containing an internal standard was added to the samples, and supernatants were prepared by protein precipitation, diluted, and then assayed by LC/MS/MS. Table 17. In vitro metabolic stability of related compounds in liver microsomes of various species

A further series has as its system Jurkat cells. In words: Inhibitory activity on Jurkat cell proliferation (CCK-8). The series is classed as cell-based. The settings on record: Homo sapiens, 72 h incubation. The procedure:
(§2) Jurkat cells in a good growth state were collected into a centrifuge tube, adjusted to a cell density of 5 × 10^4 cells/mL, and seeded in a 96-well plate (100 µL/well). The cells were incubated overnight in a cell incubator. Compounds were added using a nanoliter pipettor such that the final concentrations of the compounds were 1000 nM-0.46 nM (the addition was performed in duplicate). Meanwhile, a control was set. After another 72 h of incubation in the cell incubator, the assay reagent CCK-8 (manufacturer: Dojindo Laboratories, Beijing; 10 µL/well) was added. After 2 h of incubation in the cell incubator, absorbance was measured at 450 nm on an Envision microplate reader. A four-parameter analysis was performed, a dose-response curve was fit, and IC50 was calculated.

The test system of another series is OCI-LY10 cells. The experiment in a line: Inhibitory activity on OCI-LY10 cell proliferation (CCK-8). The settings on record: Homo sapiens, 72 h incubation. The series is classed as cell-based. The method, then:
as §2, with “OCI-LY10 cells” for “Jurkat cells”, “of 9” for “of 5”

For series [2], the system named is OCI-LY10 human diffuse large B-cell lymphoma NOD-SCID mouse subcutaneous xenograft tumor model. The experiment in a line: Efficacy in OCI-LY10 subcutaneous xenograft tumor model. The series is classed as in vivo, NOD-SCID mice. The settings on record: for TGI(%): by tumor weight. An excerpt: Efficacy evaluation in OCI-LY10 human diffuse large B-cell lymphoma NOD-SCID mouse subcutaneous xenograft tumor model • (1) SPF female NOD-SCID mice (source: Jiangsu Huachuang Xinnuo Pharmaceutical Technology Co., Ltd.) were inoculated subcutaneously at the right side armpit with OCI-LY10 human diffuse large B-cell lymphoma cells at 1 × 10^7 cells/mouse. When the mean tumor volume reached about 200 mm^3, the animals were divided into a control group (vehicle control group) and treatment groups (compound groups).
The administration dose included 1 mg/kg, 2 mg/kg, and 4 mg/kg, and the administration frequency was once daily. The day of grouping was defined as day 0, and intragastric administration was started on day 0 for 21 consecutive days.
Alternatively, the administration dose was 4 mg/kg, and the administration frequency was 5 times per week. The day of grouping was defined as day 0, and intragastric administration was started on day 0 five times per week for two consecutive weeks.
The tumor volume was measured once every 3 days, and meanwhile, the mice were weighed and the data were recorded; the general behavior of the mice was observed and recorded every day. After the experiment was completed, the tumors were removed, weighed, and photographed.
The detection index and the calculation formula are as follows: • Tumor volume TV (mm^3) = 1/2 × (a × b^2), wherein a is the long diameter of the tumor, and b is the short diameter of the tumor; • Relative tumor volume RTV = TVt/TV0, wherein TV0 is the tumor volume on day 0, and TVt is the tumor volume at each measurement; • Relative tumor proliferation rate T/C (%) = (TRTV/CRTV) × 100%, wherein TRTV is RTV of the treatment group, and CRTV is RTV of the vehicle control group; • Tumor growth inhibition rate TGI (%) = (1 - TW/TW0) × 100%; wherein TW is the tumor weight of the treatment group, and TW0 is the tumor weight of the vehicle control group; • Weight change rate WCR (%) = (Wtt - Wt0)/Wt0 × 100%, wherein Wt0 is the body weight of the mouse on day 0, and Wtt is the body weight of the mouse at each measurement.

Series [3] is described as follows: In vitro liver microsomal stability, mouse. Format: in vitro ADME. The settings on record: mouse liver microsome 0.5 mg/mL, NADPH, 37 °C, 1 h. The procedure: as §1
Series [4] in a line: Mouse pharmacokinetics. Format: in vivo. The settings on record: ICR, plasma, po, 3 mg/kg, Mice administered intragastrically 3 mpk; for AUC(0-t): read-out: AUC (0-24). The procedure:
ICR mice weighing 18-22 g were randomized into groups of 9 mice per group after 3-5 days of acclimatization and then administered intragastrically at a dose of 3 mg/kg.
Plasma samples to be tested were prepared by taking blood from the orbit at time points of 15 min, 30 min, 1 h, 2 h, 4 h, 6 h, 8 h, 10 h, and 24 h.
20 µL of each plasma sample to be tested and a standard curve sample were taken, and an acetonitrile solution containing an internal standard was added. A supernatant was obtained by protein precipitation, diluted, and then assayed by LC/MS/MS.
Pharmacokinetic parameters were fitted using a non-compartmental model.

The nature of series [5]: Mouse pharmacokinetics. Format: in vivo, ICR mice. The settings on record: ICR, plasma; for AUC(0-t): read-out: AUC (0-24).
[6] abbreviates: Table 20, 4mg/kg intragastric, Day 18 of assay.
The mark [7] stands for this setting: Table 19, 4mg/kg intragastric, Day 21 of assay.
[8] abbreviates: 1 mg/kg, Mice administered by single intravenous injection 1 mpk.
Where [9] appears, read: po, 3 mg/kg, Mice administered intragastrically 3 mpk.
The mark [10] stands for this setting: Table 19, 2mg/kg intragastric, Day 21 of assay.

With `NC(=O)/C(=C/n1cnc(-c2cc(C(F)(F)F)nc(C(F)(F)F)c2)n1)c1cnc2ccccc2c1` [11(11-A)], in series [1], the “Human liver microsome Residuals at 60 min (%)” value was 86.18%. The molecule also displayed an IC50 in the series on Jurkat cells of at most 0.02 µM. Moreover, the half-inhibitory concentration (IC50) in the series with OCI-LY10 cells was at most 0.04 µM. Also, in series [2] (setting [6]), the “RTV (mean±SD)” value is 1.7±0.2, the “T/C(%)” value is given as 21.8% and the “TV(mm^3) (mean±SD)” value is reported as 326±52 mm^3. For the same molecule, the “Weight change rate (%) (mean ± SD)” value in series [2] (Table 20, 4mg/kg intragastric, Day 21 of assay) is recorded as 0.6±8.1%. Also, the “TGI(%)” value in series [2] (Table 20, 4mg/kg intragastric, Day 21 of assay, ** p < 0.01 vs control) came to 89.7%**. In addition, in series [3], the “Mouse liver microsome Residuals at 60 min (%)” value is reported as 89.63%.
For `NC(=O)/C(=C/n1cnc(-c2cc(C(F)(F)F)nc(C(F)(F)F)c2)n1)c1cnc2cccnc2c1` [25(25-A)], the “Human liver microsome Residuals at 60 min (%)” value in series [1] is listed as 110.48%. In the series with Jurkat cells, the IC50 is at most 0.02 µM. In the series on OCI-LY10 cells, this molecule gave an IC50 of at most 0.04 µM. In series [2] (setting [7]), the “RTV (mean±SD)” value was found to be 1.8±0.6, the “T/C(%)” value is 16.7% and the “TV(mm^3) (mean±SD)” value amounted to 360±105 mm^3. Further, the “Weight change rate (%) (mean ± SD)” value in series [2] (Table 19, 4mg/kg intragastric, Day 23 of assay) is 1.7±5.3%. Also, in series [2] (Table 19, 4mg/kg intragastric, Day 23 of assay, * p < 0.05 vs control), the “TGI(%)” value is on record as 91.1%*. For the same molecule, the “Mouse liver microsome Residuals at 60 min (%)” value in series [3] was 94.66%.
As for `CC(F)(F)CNc1ncc(/C(=C\n2cnc(-c3cc(C(F)(F)F)nc(C(F)(F)F)c3)n2)C(N)=O)cn1` [3(3-A)], in series [1], the “Human liver microsome Residuals at 60 min (%)” value was found to be 95.65%. In addition, the half-inhibitory concentration (IC50) in the series with Jurkat cells is at most 0.02 µM. In “Mouse pharmacokinetics [4]”, the highest level (Cmax) was 681 ng/mL, the Tmax turned out to be 3 h, the half-life was 2.8 h and the AUC(0-t) turned out to be 5280 ng·h/mL. The IC50 in the series on OCI-LY10 cells was at most 0.04 µM. In the series “Mouse pharmacokinetics [5]” (setting [8]), the area under the curve AUC(0-inf) was 1570 ng·h/mL, the clearance was 10.6 mL/min/kg, the half-life was 1.66 h and the AUC(0-t) worked out at 1540 ng·h/mL. The molecule also yielded an AUC(0-inf) in the series “Mouse pharmacokinetics [5]” (setting [9]) of 5300 ng·h/mL. Also, the “Mouse liver microsome Residuals at 60 min (%)” value in series [3] was found to be 94.26%.
On to `Cc1ccc(/C(=C\n2cnc(-c3cc(C4CC4)nc(C(F)(F)F)c3)n2)C(N)=O)cn1` [38(38-A)], for which, in series [1], the “Human liver microsome Residuals at 60 min (%)” value was determined as 102.40%. This molecule also displayed an IC50 in the series with Jurkat cells of at most 0.02 µM. For the same molecule, in the series “Mouse pharmacokinetics [4]”, the Cmax is 874 ng/mL, the time to peak (Tmax) is 1 h, the half-life is 2.55 h and the AUC(0-t) worked out at 3480 ng·h/mL. The half-maximal inhibitory concentration (IC50) in the series with OCI-LY10 cells is at most 0.04 µM. In the series “Mouse pharmacokinetics [5]” (setting [8]), the AUC(0-inf) turned out to be 1040 ng·h/mL, the clearance was 16 mL/min/kg, the half-life was 1.41 h and the AUC(0-t) was found to be 1040 ng·h/mL. The area under the curve AUC(0-inf) in the series “Mouse pharmacokinetics [5]” (setting [9]) was 3800 ng·h/mL. Moreover, the “Mouse liver microsome Residuals at 60 min (%)” value in series [3] stood at 83.25%.
As for `Cc1ccc(/C(=C\n2cnc(-c3cc(C(F)(F)F)nc(C(F)(F)F)c3)n2)C(N)=O)cn1` [21(21-A)], the “Human liver microsome Residuals at 60 min (%)” value in series [1] worked out at 94.26%. Also, in the series “Mouse pharmacokinetics [4]”, the peak level (Cmax) was 871 ng/mL, the Tmax amounted to 1 h, the half-life is 2.35 h and the AUC(0-t) amounted to 4750 ng·h/mL. Further, in series [2] (setting [10]), the “RTV (mean±SD)” value stood at 2.4±0.4, the “T/C(%)” value is 22.2% and the “TV(mm^3) (mean±SD)” value is 520±178 mm^3. Moreover, the “Weight change rate (%) (mean ± SD)” value in series [2] (Table 19, 2mg/kg intragastric, Day 23 of assay) is on record as -2.0±6.5%. For the same molecule, the “TGI(%)” value in series [2] (Table 19, 2mg/kg intragastric, Day 23 of assay, * p < 0.05 vs control) was determined as 89.3%*. In the series “Mouse pharmacokinetics [5]” (setting [8]), the area under the curve AUC(0-inf) turned out to be 1630 ng·h/mL, the clearance was 10.2 mL/min/kg, the half-life was 3.02 h and the AUC(0-t) was 1630 ng·h/mL. The molecule further displayed an area under the curve AUC(0-inf) in the series “Mouse pharmacokinetics [5]” (setting [9]) of 4760 ng·h/mL. The “Mouse liver microsome Residuals at 60 min (%)” value in series [3] worked out at 99.28%.
